Experimental data published in patent US20260083708A1, “IL-17 MODULATORS AND USES THEREOF” (NNOCARE PHARMA INC., priority 2024, published 2026).

Tests used:
[1] = target: T1, IL-17AA and IL-17RA (Homo sapiens, UniProt Q16552); assay: Competitive inhibition of human IL-17AA and IL-17RA binding (HTRF); details: recombinant IL-17AA (His-tag) and IL-17RA (hFc-tag); read-out: IC50 for Inhibiting IL-AA/IL-RA Binding
T1 construct: purchased Sino Biological 12047-H07B (IL-17AA); 10895-H02H (IL-17RA)
T1 sequence (Q16552 24-155): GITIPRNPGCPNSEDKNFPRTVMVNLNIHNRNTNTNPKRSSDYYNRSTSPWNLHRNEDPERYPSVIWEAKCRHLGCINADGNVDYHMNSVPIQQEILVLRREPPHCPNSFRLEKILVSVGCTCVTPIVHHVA
Method in brief: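 His-IL-17AA (1 nM) premixed 1 h with anti-His-Tb (0.4 nM), and Fc-IL-17RA (1 nM) with anti-IgG-d2 (1 μg/mL); these are pre-mix levels. Compounds, diluted from 10 μM, preincubated 2 h RT with IL-17AA mix; IL-17RA mix then added, 20 min. 665/615 ratio vs no-compound and no-IL-17AA controls; IC50 by 4-parameter fit.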

[2] = system: IL-17AA-induced IL-17 signaling pathway; assay: Inhibition of IL-17AA-induced IL-17 signaling pathway in HEK-Blue IL-17 reporter cells (SEAP); assay type: cell-based; details: Homo sapiens; HEK-Blue IL-17 cells, IL-17AA 2.5 ng/mL, 20 hours; read-out: IC50 for Inhibiting IL-AA Signaling
Method in brief: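 HEK-Blue IL-17 cells (HEK293 expressing human IL-17RA/RC, ACT1 and NF-κB/AP-1-driven SEAP), 10,000/well, pre-incubated with compound (serial dilution from 10 μM) for 1 h at 37 °C, then stimulated with IL-17AA at 2.5 ng/mL final for 20 h. SEAP in supernatant read with Quanti-Blue at 620 nm; IC50 by 4-parameter fit.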

[3] = system: IL-17AF-induced IL-17 signaling pathway; assay: Inhibition of IL-17AF-induced IL-17 signaling pathway; assay type: cell-based; details: Homo sapiens; IL-17AF used instead of IL-17AA; read-out: IC50 for Inhibiting IL-AF Signaling
Method in brief: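 HEK293-derived HEK-Blue IL-17 cells (IL-17RA/RC, ACT1, NF-κB/AP-1-driven SEAP) preincubated 1 hour at 37° C with serially diluted compound from 10 μM, then stimulated with IL-17AF for 20 hours. SEAP read colorimetrically at 620 nm; IC50 from 4-parameter fit of % inhibition.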

SMILES	IC50 [1]	IC50 [2]	IC50 [3]
CCC(=O)N[C@@H](c1ncnn1CC1CC1)[C@@H](C)c1ccc(NC(=O)[C@@H](NC(=O)c2ccnn2C(C)C)C(C2CC2)C2CC2)c(F)c1 [Compound 44, N-((S)-1,1-dicyclopropyl-3-((4-((1R,2S)-1-(1-(cyclopropylmethyl)-1H-1,2,4-triazol-5-yl)-1-propionamidopropan-2-yl)-2-fluorophenyl)amino)-3-oxopropan-2-yl)-1-isopropyl-1H-pyrazole-5-carboxamide]	1.9 nM	4.4 nM	29 nM
COCC(=O)N[C@@H](c1nnnn1CC1CC1)[C@@H](C)c1ccc(NC(=O)[C@@H](NC(=O)c2nonc2C)C(C2CC2)C2CC2)c(F)c1 [Compound 54, N-((S)-1,1-dicyclopropyl-3-((4-((1R,2S)-1-(1-(cyclopropylmethyl)-1H-tetrazol-5-yl)-1-(2-methoxyacetamido)propan-2-yl)-2-fluorophenyl)amino)-3-oxopropan-2-yl)-4-methyl-1,2,5-oxadiazole-3-carboxamide]	3 nM	3.6 nM	16 nM
CCn1nccc1C(=O)N[C@H](C(=O)Nc1ccc([C@H](C)[C@@H](NC(=O)COC)c2ncn(CC3CC3)n2)cc1F)C(C1CC1)C1CC1 [Compound 20, N-((S)-1,1-dicyclopropyl-3-((4-((1R,2S)-1-(1-(cyclopropylmethyl)-1H-1,2,4-triazol-3-yl)-1-(2-methoxyacetamido)propan-2-yl)-2-fluorophenyl)amino)-3-oxopropan-2-yl)-1-ethyl-1H-pyrazole-5-carboxamide]	20 nM	14 nM	50 nM
COCC(=O)N[C@@H](c1nncn1CC1CC1)[C@@H](C)c1ccc(NC(=O)[C@@H](NC(=O)COc2cc(C(F)F)on2)C(C2CC2)C2CC2)c(F)c1 [Compound 8]	13 nM	35 nM	73 nM
COCC(=O)N[C@@H](c1nncn1CC1CC1)[C@@H](C)c1ccc(NC(=O)[C@@H](NC(=O)COCC2CC2)C(C2CC2)C2CC2)c(F)c1 [Compound 15, (S)-3,3-dicyclopropyl-2-(2-(cyclopropylmethoxy)acetamido)-N-(4-((1R,2S)-1-(4-(cyclopropylmethyl)-4H-1,2,4-triazol-3-yl)-1-(2-methoxyacetamido)propan-2-yl)-2-fluorophenyl)propanamide]	172 nM	1120 nM	2130 nM
[2H]C([2H])([2H])n1nccc1C(=O)N[C@H](C(=O)Nc1ccc([C@H](C)[C@@H](NC(=O)CC)c2ncn(CC3CC3)n2)cc1F)C(C1CC1)C1CC1 [Compound 43, N-((S)-1,1-dicyclopropyl-3-((4-((1R,2S)-1-(1-(cyclopropylmethyl)-1H-1,2,4-triazol-3-yl)-1-propionamidopropan-2-yl)-2-fluorophenyl)amino)-3-oxopropan-2-yl)-1-(methyl-d3)-1H-pyrazole-5-carboxamide]	9.4 nM	16 nM	27 nM
CCn1nccc1C(=O)N[C@H](C(=O)Nc1ccc([C@H](C)[C@@H](NC(=O)CN2CCC2)c2ncnn2CC2CC2)cc1F)C(C1CC1)C1CC1 [Compound 51, N-((S)-1-((4-((1R,2S)-1-(2-(azetidin-1-yl)acetamido)-1-(1-(cyclopropylmethyl)-1H-1,2,4-triazol-5-yl)propan-2-yl)-2-fluorophenyl)amino)-3,3-dicyclopropyl-1-oxopropan-2-yl)-1-ethyl-1H-pyrazole-5-carboxamide]	50 nM	178 nM	211 nM
Cc1nonc1C(=O)N[C@H](C(=O)Nc1ccc([C@H](C)[C@@H](NC(=O)CO)c2ncnn2CC2CC2)cc1F)C(C1CC1)C1CC1 [Compound 57, N-((S)-1,1-dicyclopropyl-3-((4-((1R,2S)-1-(1-(cyclopropylmethyl)-1H-1,2,4-triazol-5-yl)-1-(2-hydroxyacetamido)propan-2-yl)-2-fluorophenyl)amino)-3-oxopropan-2-yl)-4-methyl-1,2,5-oxadiazole-3-carboxamide]	6.8 nM	95 nM	88 nM
CCc1nonc1C(=O)N[C@H](C(=O)Nc1ccc([C@H](C)[C@@H](NC(=O)[C@H](C)OC)c2nncn2CC2CC2)cc1F)C(C1CC1)C1CC1 [Compound 26, N-((S)-1,1-dicyclopropyl-3-((4-((1R,2S)-1-(4-(cyclopropylmethyl)-4H-1,2,4-triazol-3-yl)-1-((S)-2-methoxypropanamido)propan-2-yl)-2-fluorophenyl)amino)-3-oxopropan-2-yl)-4-ethyl-1,2,5-oxadiazole-3-carboxamide]	0.8 nM	2 nM	4.5 nM
CCc1nonc1C(=O)N[C@H](C(=O)Nc1ccc([C@H](C)[C@@H](NC(=O)COC)c2ncnn2CC2CC2)cc1F)C(C1CC1)C1CC1 [Compound 34, N-((S)-1,1-dicyclopropyl-3-((4-((1R,2S)-1-(1-(cyclopropylmethyl)-1H-1,2,4-triazol-5-yl)-1-(2-methoxyacetamido)propan-2-yl)-2-fluorophenyl)amino)-3-oxopropan-2-yl)-4-ethyl-1,2,5-oxadiazole-3-carboxamide]	2.6 nM	2.2 nM	3.2 nM

The remaining lines, values ahead:

IC50 [1]	IC50 [2]	IC50 [3]	SMILES
1 nM	1.9 nM	8.5 nM	CCC(=O)N[C@@H](c1ncnn1CC1CC1)[C@@H](C)c1ccc(NC(=O)[C@@H](NC(=O)c2ccnn2CC)C(C2CC2)C2CC2)c(F)c1 [Compound 72, N-((S)-1,1-dicyclopropyl-3-((4-((1R,2S)-1-(1-(cyclopropylmethyl)-1H-1,2,4-triazol-5-yl)-1-propionamidopropan-2-yl)-2-fluorophenyl)amino)-3-oxopropan-2-yl)-1-ethyl-1H-pyrazole-5-carboxamide]
2.5 nM	4 nM	8.3 nM	CCOCC(=O)N[C@@H](c1ncnn1CC1CC1)[C@@H](C)c1ccc(NC(=O)[C@@H](NC(=O)c2nonc2C)C(C2CC2)C2CC2)c(F)c1 [Compound 63, N-((S)-1,1-dicyclopropyl-3-((4-((1R,2S)-1-(1-(cyclopropylmethyl)-1H-1,2,4-triazol-5-yl)-1-(2-ethoxyacetamido)propan-2-yl)-2-fluorophenyl)amino)-3-oxopropan-2-yl)-4-methyl-1,2,5-oxadiazole-3-carboxamide]
5.6 nM	10 nM	8.4 nM	CCC(=O)N[C@@H](c1ncccc1CC1CC1)[C@@H](C)c1ccc(NC(=O)[C@@H](NC(=O)c2ccnn2CC)C(C2CC2)C2CC2)c(F)c1 [Compound 82, N-((S)-1,1-dicyclopropyl-3-((4-((1R,2S)-1-(3-(cyclopropylmethyl)pyridin-2-yl)-1-propionamidopropan-2-yl)-2-fluorophenyl)amino)-3-oxopropan-2-yl)-1-ethyl-1H-pyrazole-5-carboxamide]
1980 nM	> 2000 nM	> 2000 nM	[2H]C([2H])([2H])n1nccc1C(=O)N[C@H](C(=O)Nc1ccc([C@H](C)[C@H](NC(=O)CC)c2ncnn2CC2CC2)cc1F)C(C1CC1)C1CC1 [Compound 87, N-((S)-1,1-dicyclopropyl-3-((4-((1S,2S)-1-(1-(cyclopropylmethyl)-1H-1,2,4-triazol-5-yl)-1-propionamidopropan-2-yl)-2-fluorophenyl)amino)-3-oxopropan-2-yl)-1-(methyl-d3)-1H-pyrazole-5-carboxamide]
235 nM	946 nM	1550 nM	CCn1nccc1C(=O)N[C@H](C(=O)Nc1ccc([C@H](C)[C@@H](NC(=O)COC)c2nnc(C3CCN3C)s2)cc1F)C(C1CC1)C1CC1 (stereo partly drawn) [Compound 59, N-((2S)-1,1-dicyclopropyl-3-((2-fluoro-4-((1R,2S)-1-(2-methoxyacetamido)-1-(5-(1-methylazetidin-2-yl)-1,3,4-thiadiazol-2-yl)propan-2-yl)phenyl)amino)-3-oxopropan-2-yl)-1-ethyl-1H-pyrazole-5-carboxamide]
4.5 nM	5.6 nM	6.4 nM	[2H]C([2H])([2H])OCC(=O)N[C@@H](c1ncnn1CC1CC1)[C@@H](C)c1ccc(NC(=O)[C@@H](NC(=O)c2ccnn2CC)C(C2CC2)C2CC2)c(F)c1 [Compound 68, N-((S)-1,1-dicyclopropyl-3-((4-((1R,2S)-1-(1-(cyclopropylmethyl)-1H-1,2,4-triazol-5-yl)-1-(2-(methoxy-d3)acetamido)propan-2-yl)-2-fluorophenyl)amino)-3-oxopropan-2-yl)-1-ethyl-1H-pyrazole-5-carboxamide]
